From US4939122A, “Lipophile derivatives of muramylpeptides having properties of activating macrophages and compositions containing them” (priority 1984, dated 1990)
Where “and” joins values, the source holds several entries; their conditions need not be identical. Equal values may be shown once. Read-outs that look alike come from different tables or passages of the source.

Key:
Klebsiella pneumoniae = assay: Anti-infectious activity in Swiss mice infected i.v. with Klebsiella pneumoniae; type: in vivo; conditions: for protective activity against lethal Klebsiella pneumoniae infection (in words): summary of observations
Method: In the Tables VII to XI are indicated the conditions in which the substances were administered and, according to the considered cases, the number of mice surviving 10 or 15 days later and the corresponding percentages of protection with respect to controls.

[1] = Retention of the muramylpeptide in liposomes incubated in MEM-FCS medium at 37° C.; type: physicochemical
Method: Liposomes produced under the same conditions, but with muramylpeptides labeled with tritium have enabled the following observations. […] The incorporation of the MDP-GDP and the stability of the latter, has also been verified in reaction tests with anti-MDP monoclonal antibodies. After incubation of these liposomes in the same medium at 37° C. for 72 hours, there is observed a constant agglutination of the liposomes with the antibody (95% of the liposome being agglutinated), this observation bearing witness to the practical absence of any loss of MDP-GDP. […] The leakage, if it was produced, would have been manifested by a decrease in the intensity of agglutination with time.

bovine serumalbumin = assay: Adjuvant activity in the Swiss female mouse, passive hemagglutination titer; type: in vivo; conditions: for Primary response, passive hemagglutination titer: 100 micrograms with 500 micrograms of bovine serumalbumin at day 0, day 21, serums titrated in pools; for Secondary response, passive hemagglutination titer: booster of antigen alone at day 30, day 36, titrated separately
Method: At day 0, 100 micrograms of C474 were injected with 500 micrograms of bovine serumalbumin. At day 30, the animals received a booster of 100 micrograms of antigen alone. The following results were obtained:
The titers are expressed in Log 2 of the passive hemagglutination titer. At day 21, the serums were titrated in pools; at day 36, they were titrated separately.

[2] = Pyrogenicity in rabbits (European Pharmacopoea); type: in vivo, rabbit; conditions: 1 mg/kg; groups of three rabits, individual animals
Source text: Certain of the compounds according to the invention show at relatively high doses, a certain pyrogenicity, whose impact is however reduced, taking into account the particularly higher therapeutic index from which they appear to benefit. This being the case, the muramylpeptides in which the group of modification by the two lipophile chains is fixed to the 6 position of the saccharide group, and of which the peptide chain is terminated by a glutamy-alpha-ester-gamma-amide group, are particularly advantageous by reason of their more reduced pyrogenicity. Testimony thereof is borne by comparative pyrogenicity measurements carried out on groups of three rabits with the two compounds more particularly studied, according to the procedure of the European Pharmacopoea, Vol. 2, 1971, pages 58-60. In fact, the following results are obtained, expressed by temperature observations observed in experimental animals to which had previously been administered 1 mg/kg of the compounds studied: for the MDP-GDP : 1°; 0.9° and 1° C.; for the 6 -0-GDP-MDPG-OnBu : 0.2°; 0.3° and 0.5° C.

Candida albicans = assay: Protection of mice infected by the venous route with Candida albicans; type: in vivo
[3] = system: influenza virus suspension APR/8; type: in vivo; conditions: preventive, 0.1 mg per mouse
[4] = Table X, 100 μg i.v. at day -1, 10^4 K. pneumoniae
[5] = Table XI, 2 × 10^6 Candida albicans, muramylpeptide 100 μg/day/4 days i.v. (-4 to -1), amphotericin B 3 μg subcutaneously on the day of infection
[6] = Table XI, 2 × 10^6 Candida albicans, muramylpeptide 100 μg/day/4 days i.v., amphotericin B 3 μg subcutaneously
[7] = Table IX, 5 × 10^4 K. pneumoniae, Gentamicin 10 μg subcutaneously 2 hours after infection, MDP or MDP-GDP 30 μg intravenously 24 hours before
[8] = Table VII, aqueous suspension, 100 μg i.v. at day -1, 10^4 K. pneumoniae

## 6-O-(beta, gamma-dipalmitoyl-L-glycerol)-capryl -N-acetyl-muramyl-L-alanyl-D-glutamine-n-butyl ester [6-0-GDP-aminocaproyl-MDPG-OnBu]
Klebsiella pneumoniae; [4]
  Protection (%): 56%
  Survival (15 d): 9/16
[1]
  retention of the muramylpeptide in the liposomes (in words): Quite similar observations

## 6-O-(beta, gamma-dipalmitoyl-L-glyceryl)-N-acetyl-muramyl-L-alanyl-D-glutamine-n-buty l-ester [6-0-GDP-MDPG-OnBu]
Bovine serumalbumin
  Primary response, passive hemagglutination titer: 2.64 Log 2
  Secondary response, passive hemagglutination titer: 8.6 Log 2
Klebsiella pneumoniae
  protective activity against lethal Klebsiella pneumoniae infection (in words): protective activity comparable
[1]
  retention of the muramylpeptide in the liposomes (in words): Quite similar observations
[2]
  temperature observations (pyrogenicity): 0.2 °C and 0.3 °C and 0.5 °C

## C[C@@H]1[C@H](O)[C@@H](C)/C=C/C=C/C=C/C=C/C=C/C=C/C=C/[C@H](O[C@@H]2O[C@H](C)[C@@H](O)[C@H](N)[C@@H]2O)C[C@@H]2O[C@](O)(C[C@@H](O)C[C@@H](O)[C@H](O)CC[C@@H](O)C[C@@H](O)CC(=O)O[C@H]1C)C[C@H](O)[C@H]2C(=O)O [Amphotericin B, reference compound]
Candida albicans; [5]
  Survival (10 d): 2/16
Candida albicans; [6]
  Protection: 13

## CCCCCCCCCCCCCCCC(=O)OCC(COC(=O)[C@H](C)NC(=O)CC[C@@H](NC(=O)[C@@H](C)NC(=O)[C@@H](C)O[C@H]1[C@H](O)[C@@H](CO)OC(O)[C@@H]1NC(C)=O)C(N)=O)OC(=O)CCCCCCCCCCCCCCC (stereo partly drawn) [MDP(D,D)-L-Ala-GDP, alpha (N-acetyl-muramyl-D-alanyl-D-isoglutaminyl-L-alanine) beta, gamma-dipalmitoyl-sn-glycerol]
Klebsiella pneumoniae; [4]
  Protection (%): 25%
  Survival (15 d): 6/16
Klebsiella pneumoniae
  protective activity against lethal Klebsiella pneumoniae infection (in words): although active, is less so than MDP-L-Ala-GDP
[1]
  retention of the muramylpeptide in the liposomes (in words): Quite similar observations

## CCCCCCCCCCCCCCCC(=O)OC[C@@H](COC(=O)CC[C@@H](NC(=O)[C@H](C)NC(=O)[C@@H](C)O[C@H]1[C@H](O)[C@@H](CO)OC(O)[C@@H]1NC(C)=O)C(N)=O)OC(=O)CCCCCCCCCCCCCCC (stereo partly drawn) [MDP-GDP, alpha (N-acetyl-muramyl-L-alanyl-D-isoglutamine), beta, gamma-dipalmitoyl-sn-glycerol]
Candida albicans; [5]
  Survival (10 d): 3/16
Candida albicans; [6]
  Protection: 19
Candida albicans; Table XII, aqueous suspension IOO μg × 4
  Protection: 75%
Candida albicans; Table XII, aqueous suspension IOO μg × 4, days -4, -3, -2, and -1, 10^6 Candida albicans
  Survival (10 d): 6/8
Candida albicans; in vivo
  activity against Candida (in words): active
Bovine serumalbumin
  Primary response, passive hemagglutination titer: 3.64 Log 2
  Secondary response, passive hemagglutination titer: 10.27 Log 2
Klebsiella pneumoniae; [7]
  Protection (%): 16%
  Survival (15 d): 4/24
Klebsiella pneumoniae; [8]
  Protection (%): 65%
  Survival (15 d): 32/48
Klebsiella pneumoniae; in liposomes
  protective activity when injected in liposomes (in words): the most active
Klebsiella pneumoniae
  protective activity against lethal Klebsiella pneumoniae infection (in words): protective activity comparable
[3]; orally
  survival: 56%
[3]; subcutaneously
  survival: 44%

## CCCCCCCCCCCCCCCC(=O)OCC(COC(=O)[C@H](C)NC(=O)CC[C@@H](NC(=O)[C@H](C)NC(=O)[C@@H](C)O[C@H]1[C@H](O)[C@@H](CO)OC(O)[C@@H]1NC(C)=O)C(N)=O)OC(=O)CCCCCCCCCCCCCCC (stereo partly drawn) [MDP-L-Ala-GDP, alpha (N-acetyl-muramyl-L-alanyl-D-isoglutaminyl-L-alanine), beta, gamma-dipalmitoyl-sn-glycerol]
Klebsiella pneumoniae; [4]
  Protection (%): 63%
  Survival (15 d): 12/16
[1]
  retention of the muramylpeptide in the liposomes (in words): Quite similar observations

## CCCCOC(=O)[C@@H](CCC(N)=O)NC(=O)[C@H](C)NC(=O)[C@@H](C)O[C@H]1[C@H](O)[C@@H](CO)OC(O)[C@@H]1NC(C)=O (some centres unmarked) [MDPG-OnBu, reference compound]
Klebsiella pneumoniae; [8]
  Protection (%): 62.5%
  Survival (15 d): 20/32

## Gentamicin [reference compound]
Klebsiella pneumoniae; [7]
  Protection (%): 21%
  Survival (15 d): 5/24

## alpha (N-acetyl-muramyl-D-alanyl-D-isoglutamine), beta, gamma-dipalmitoyl-sn-glycerol [MDP(D,D)-GDP]
Candida albicans; [5]
  Survival (10 d): 0/16
Klebsiella pneumoniae; [8]
  Protection (%): 83.3%
  Survival (15 d): 20/24
Klebsiella pneumoniae
  protective activity against lethal Klebsiella pneumoniae infection (in words): protective activity comparable
[1]
  retention of the muramylpeptide in the liposomes (in words): Quite similar observations
